From patent EP2283839A1, “Polyunsaturated hydroxylated molecule having an eze geometry and its use in therapy” (Institut National des Sciences Appliquées de Lyon, priority 2009, dated 2011)
Marks after values point to notes of the source that are not given here.

system: platelets isolated from human blood; test: Measurement of platelet aggregation (turbidimetric method, aggregometer); assay type: cell-based; conditions: 1 µM triene molecules; Collagen-induced platelet aggregation; measured after 4 min
Protocol: Aggregation tests were performed on platelets isolated from human blood in presence or not of different dihydroxylated triene compounds with different double bond geometry: ZEE, EZE or ZZZ. Platelet aggregation was determined by a standard turbidimetric method using a dual aggregometer (CHRONO-LOG, USA). The levels of light transmission were calibrated as 0 % for a platelet suspension and 100% for the Tyrode/HEPES solution (pH 7.35). 400 µl of platelet suspension in a vial was preincubated for 1 min at 37 °C under a continuous stirring condition, 1 µl of sample in ethanol was added for incubation, the activators (collagen, arachidonic acid, or U46619) were added after 2 min of incubation and the extent of platelet aggregation was measured after 4 min running. Other compounds were prepared using the same procedure or by conversion of PDX and compared to similar compounds of different configurations ZEE or EEE. Table I: Effects of 1 µM triene molecules on Collagen-induced platelet aggregation

Row | SMILES | % inhibition
1 | CCCCC/C=C\C[C@H](O)/C=C/C=C\C=C\[C@@H](O)CCCC(=O)O [5(S),12(S)-diHETE, 5(S),12(S)-dihydroxy-eicosa-6E,8Z,10E,14Z tetraenoic acid] | 74.9** %
2 | CCCCC/C=C\C[C@@H](O)/C=C/C=C/C=C/[C@@H](O)CCCC(=O)O [6-trans LTB4, 5(S),12(R)-dihydroxy-eicosa-6E,8E,10E,14Z-tetraenoic acid] | 8.1%
3 | CCCCC/C=C\C[C@H](O)/C=C/C=C/C=C/[C@@H](O)CCCC(=O)O [6trans-12-epi LTB4, 5(S),12(S)-dihydroxy-eicosa-6E,8E,10E,14Z-tetraenoic acid] | 1.8%
4 | CCCCC[C@H](O)/C=C/C=C\C=C\[C@@H](O)C/C=C\CCCC(=O)O [8(S),15(S)-diHETE, 8(S),15(S)-dihydroxy-eicosa-5Z,9E,11Z,13E -tetraenoic acid] | 66.5** %
5 | CC/C=C\C[C@H](O)/C=C/C=C\C=C\[C@H](O)C/C=C\C/C=C\CCC(=O)O [10(R),17(S)-diOH-22:6, 10(R),17(S)-dihydroxy-docosa-4Z,7Z,11E,13Z,15E,17Z-hexaenoic acid] | 70.0** %
6 | CCCCCCCC[C@H](O)/C=C/C=C/C=C\[C@@H](O)CCCC(=O)O [12-epi LTB3, 5(S),12(S)-dihydroxy-eicosa-6Z,8E,10E,-trienoic acid] | 7.4%
7 | CCCCC/C=C\C[C@H](O)/C=C/C=C/C=C\[C@@H](O)CCCC(=O)O [12-epi LTB4, 5(S),12(S)-dihydroxy-eicosa-6Z,8E,10E,14Z-tetraenoic acid] | 3.9%
8 | CCCCCCCC[C@@H](O)/C=C/C=C/C=C\[C@@H](O)CCCC(=O)O [LTB3, 5(S),12(R)-dihydroxy-eicosa-6Z,8E,10E,-trienoic acid] | 5.0%
9 | CCCCC/C=C\C[C@@H](O)/C=C/C=C/C=C\[C@@H](O)CCCC(=O)O [LTB4, 5(S),12(R)-dihydroxy-eicosa-6Z,8E,10E,14Z-tetraenoic acid] | 3.4%
10 | CC/C=C\C[C@H](O)/C=C/C=C\C=C\[C@@H](O)C/C=C\C/C=C\CCC(=O)O [PDX, 10S,17S-dihydroxy-docosa-4Z,7Z,11E,13Z,15E,19Z-hexaenoic acid] | 56.1** %
11 | CCCCC[C@H](O)/C=C/C=C\C=C\[C@@H](O)CCCCCCCCC(=O)O [diOH-22:3, 10(S),17(S)-dihydroxy-docosa-11E,13Z,15E,-trienoic acid] | 63.8** %
